Experiments:
Type in all cases: cell-based
MC1R [1] = target: T1, MC1R (Homo sapiens, UniProt Q01726); assay: cAMP radioimmunoassay in human melanocyte culture 1753
T1 construct: human melanocyte cultures, coded 1750 and 1753, that were derived from 2 different donors expressing functional MC1R; endogenous in cells; host or cells: primary human melanocyte cultures 1750 and 1753 (two donors)
Description: Compounds 1, 2, 3 and 4 were tested in various separate tests and using 2 different human melanocyte cultures, coded 1750 and 1753, that were derived from 2 different donors expressing functional MC1R. The melanocytes were plated at a density of 0.3*10^6 cells/well. After 48 hours, the melanocytes were treated with the different compound concentrations for 1 hour. Controls without compound were included in all experiments. […] The reaction was stopped by addition of 50 μl N HCl and the supernatant in each well was used to measure cAMP using a radioimmunoassay as described by Suzuki 1996 (Suzuki I, Cone R D, Im S, Nordlund ii, Abdel-Malek Z: “Binding of melanotropic hormones to the MC1 receptor on human melanocytes stimulates proliferation and melanogenesis”. Endocrinology 137: 1627-1633, 1996). Duplicate samples from each well were assayed with triplicate wells included in each compound group. The results from different tests cannot be compared due to differences in melanocyte cultures and to different passage number. The mean of 6 cAMP measurements per group was expressed as % of the control group. Statistical analysis was carried out using ANOVA followed by Newman Kuels test. In some cases, unpaired t-test was used.

tyrosinase = assay: Tyrosinase activity (3H-tyrosine) in human melanocyte culture 1750; conditions: Test 4, melanocytes 1750, six days treatment; concentration not given
Description: Compounds 1, 2, 3 and 4 were tested in various separate tests and using 2 different human melanocyte cultures, coded 1750 and 1753, that were derived from 2 different donors expressing functional MC1R. The melanocytes were plated at a density of 0.3*10^6 cells onto 60 mm dishes (triplicate dishes/group). After 48 hours, the melanocytes were treated every other day for a total of six days with different doses of each compound. Controls without compound were included in all experiments. In some experiments reference compound NDP-MSH was included. On treatment day 5, ^3H-labeled tyrosine, the substrate for tyrosinase, was added and 24 hours later, the supernatant was saved to be assayed for tyrosinase activity as described by Suzuki et al (see example 3). Duplicate samples from each were assayed, with triplicate dishes included in each group. Cell number in each dish was counted, and tyrosinase activity was expressed as dpm/10^6 cells and as % of the control. Tests results between separate tests cannot be compared due to differences in melanocyte cultures and to different passage number. Statistical analysis was carried out using ANOVA followed by Newman Kuels test.
It will be understood that this tyrosinase activation test relates to a late event after MC1R activation, compared to the earlier secondary messenger effect of the above cAMP test. As pointed out above, activity of tyrosinase requires days of treatment. Following are the results comparing the compounds in the test indicated: […]

MC1R [2] = target: T1, MC1R; assay: cAMP radioimmunoassay in human melanocyte culture 1750
Description: Compounds 1, 2, 3 and 4 were tested in various separate tests and using 2 different human melanocyte cultures, coded 1750 and 1753, that were derived from 2 different donors expressing functional MC1R. The melanocytes were plated at a density of 0.3*10^6 cells/well. After 48 hours, the melanocytes were treated with the different compound concentrations for 1 hour. Controls without compound were included in all experiments. In some experiments reference compound NDP-MSH was included. The reaction was stopped by addition of 50 μl N HCl and the supernatant in each well was used to measure cAMP using a radioimmunoassay as described by Suzuki 1996 (Suzuki I, Cone R D, Im S, Nordlund ii, Abdel-Malek Z: “Binding of melanotropic hormones to the MC1 receptor on human melanocytes stimulates proliferation and melanogenesis”. Endocrinology 137: 1627-1633, 1996). Duplicate samples from each well were assayed with triplicate wells included in each compound group. The results from different tests cannot be compared due to differences in melanocyte cultures and to different passage number. The mean of 6 cAMP measurements per group was expressed as % of the control group. Statistical analysis was carried out using ANOVA followed by Newman Kuels test. In some cases, unpaired t-test was used.

T1 sequence (Q01726 whole entry): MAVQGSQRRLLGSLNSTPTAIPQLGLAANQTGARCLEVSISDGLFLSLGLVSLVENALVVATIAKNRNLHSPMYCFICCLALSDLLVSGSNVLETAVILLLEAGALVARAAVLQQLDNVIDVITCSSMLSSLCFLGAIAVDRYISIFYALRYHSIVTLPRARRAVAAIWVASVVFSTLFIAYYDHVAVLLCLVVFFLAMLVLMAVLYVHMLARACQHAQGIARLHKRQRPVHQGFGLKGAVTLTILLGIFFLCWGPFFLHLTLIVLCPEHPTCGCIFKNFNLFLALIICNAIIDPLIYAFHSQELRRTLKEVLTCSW

Question: What does the source list for “(C2H5)3N—CH2—CO-Nle-Glu-His-D-Phe-Arg-Trp-NH2 [Compound 1]”?
Answer: cAMP, highest overall efficacy value, % of the control group (MC1R [1]; Test 2, melanocytes 1753, at 10^-7 M, 1 hour treatment, p<0.05): 431%; tyrosinase activity, efficacy, % of the control (tyrosinase): 178%

Question: Which “dose at which maximum effect on cAMP was achieved” value (MC1R [1]; Test 2, melanocytes 1753, p<0.05 vs control) does the source give for “(C2H5)3N—CH2—CO-Nle-Glu-His-D-Phe-homoArg-Trp-NH2 [Compound 3]” here?
Answer: 10^−9 M

Question: And the “cAMP, highest overall efficacy value, % of the control group” value (MC1R [2]; Test 1, melanocytes 1750, at 10^-7 M, 1 hour treatment, p<0.05)?
Answer: 327%

Question: What does the source list for “(CH3)3N—(CH2)3—CO-Nle-Glu-His-D-Phe-Arg-Trp-NH2 [Compound 2]”?
Answer: lowest dose showing cAMP efficacy statistically different from control (MC1R [1]; Test 2, melanocytes 1753, p<0.05): 10^−11 M; dose at which maximum effect on cAMP (vs control) was achieved (MC1R [2]; Test 1, melanocytes 1750, 1 hour treatment, p<0.05 vs control): 10^−8 M; tyrosinase activity, efficacy, % of the control (tyrosinase): 171%

Question: For “(CH3)3N—(CH2)3—CO-Nle-Glu-His-D-Phe-homoArg-Trp-NH2 [Compound 4]”, which “cAMP, highest efficacy, % of the control group” value (MC1R [1]; Test 3, melanocytes 1753, at 10^-7 M, 1 hour treatment, p<0.05) is on record?
Answer: 253%

Question: NDP-MSH [reference compound] was tested. Which “tyrosinase activity, efficacy, % of the control” value (tyrosinase) did it give?
Answer: 166%

Source: patent US11286288B2, “Pharmaceutical compound” (VALLAURIX PTE. LTD., priority 2015, dated 2022)
